Usually AC50 stands for the concentration at which the activity in the assay is half-maximal. Broadly, the IC50 is the midpoint of a concentration-inhibition curve. In general, EC50 refers to the concentration at which the effect is half-maximal. Usually Ki stands for a dissociation constant, usually derived from enzyme kinetics or from competition with a known ligand.

Experiment [1] in a line: P. falciparum Dd2 growth inhibitors, dose response, SYBR Green, cherry-picked samples (AID 1159567). It is filed as functional, cell-based.
A short description of experiment [2]: Dd2 malaria parasite growth inhibition potency – SYBR Green, dry powder samples, dose response (AID 1159566).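 Also: potency for growth inhibition with lower SYBR green DNA signal.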 It is filed as functional, cell-based.
A short description of experiment [3]: growth inhibition of yeast DHODH-expressing 3D7 parasites – SYBR Green, dry powder samples, dose response (AID 1159570).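 Also: parasite growth measured after 72 hours of compound exposure.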 It counts as functional, cell-based.
The nature of experiment [4]: toxicity to human HepG2 hepatoma cells – cell-based, plate reader, dry powder samples, cytotoxicity control, dose response (AID 1159569).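 Also: inhibitor potency with signal falling toward the positive control level.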 It is filed as functional.
The nature of experiment [5]: growth inhibition of PfATP4-mutant resistant parasites – NITD609-resistant line, SYBR Green, dry powder, dose response (AID 1159571).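 Also: parasites synchronized at ring stage by sorbitol before testing.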 It counts as functional, cell-based.
Another experiment concerns the target T1, Protein Tat (Human immunodeficiency virus type 1 group M subtype B (isolate HXB2)(HIV-1), UniProt P04608).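 Also: tat binding to TAR RNA read out by fluorescence polarization.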
T1 sequence (P04608 whole entry): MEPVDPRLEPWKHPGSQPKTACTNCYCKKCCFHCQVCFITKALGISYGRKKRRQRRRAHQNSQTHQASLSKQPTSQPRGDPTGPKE
It is filed as functional.

In the next experiment the target is T2, Estrogen receptor (Homo sapiens, UniProt P03372).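 Also: potency for inhibiting coactivator peptide recruitment to the receptor.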
T2 sequence (P03372 whole entry): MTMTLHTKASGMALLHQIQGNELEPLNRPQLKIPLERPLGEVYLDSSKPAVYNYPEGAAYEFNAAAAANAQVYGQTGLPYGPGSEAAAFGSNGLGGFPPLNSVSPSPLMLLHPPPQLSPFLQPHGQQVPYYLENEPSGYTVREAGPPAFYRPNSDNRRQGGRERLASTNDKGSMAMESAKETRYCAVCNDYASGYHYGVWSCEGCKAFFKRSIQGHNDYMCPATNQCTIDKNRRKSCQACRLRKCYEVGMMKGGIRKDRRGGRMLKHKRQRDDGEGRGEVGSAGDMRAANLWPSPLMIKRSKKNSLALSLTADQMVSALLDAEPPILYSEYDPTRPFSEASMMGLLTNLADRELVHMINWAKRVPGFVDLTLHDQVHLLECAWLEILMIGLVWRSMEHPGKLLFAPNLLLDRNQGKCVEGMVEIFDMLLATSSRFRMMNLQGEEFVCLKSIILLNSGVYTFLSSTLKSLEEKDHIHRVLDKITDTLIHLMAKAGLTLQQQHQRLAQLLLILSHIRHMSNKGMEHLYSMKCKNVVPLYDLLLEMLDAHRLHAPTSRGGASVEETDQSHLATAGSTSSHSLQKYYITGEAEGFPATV

The target in another experiment is Albumin (Bos taurus, UniProt P02769). Put plainly: Counterscreen for inhibitors of T-cell receptor (TCR)-CD3 interaction: Fluorescence-based biochemical high throughput dose response assay to identify inhibitors of T-cell receptor (TCR)-CD3 interaction using a TAMRA-labeled BSA probe. It counts as functional. (A counterscreen serves to expose hits that act by an unwanted route or on another target.)
Albumin, sequence (P02769 whole entry): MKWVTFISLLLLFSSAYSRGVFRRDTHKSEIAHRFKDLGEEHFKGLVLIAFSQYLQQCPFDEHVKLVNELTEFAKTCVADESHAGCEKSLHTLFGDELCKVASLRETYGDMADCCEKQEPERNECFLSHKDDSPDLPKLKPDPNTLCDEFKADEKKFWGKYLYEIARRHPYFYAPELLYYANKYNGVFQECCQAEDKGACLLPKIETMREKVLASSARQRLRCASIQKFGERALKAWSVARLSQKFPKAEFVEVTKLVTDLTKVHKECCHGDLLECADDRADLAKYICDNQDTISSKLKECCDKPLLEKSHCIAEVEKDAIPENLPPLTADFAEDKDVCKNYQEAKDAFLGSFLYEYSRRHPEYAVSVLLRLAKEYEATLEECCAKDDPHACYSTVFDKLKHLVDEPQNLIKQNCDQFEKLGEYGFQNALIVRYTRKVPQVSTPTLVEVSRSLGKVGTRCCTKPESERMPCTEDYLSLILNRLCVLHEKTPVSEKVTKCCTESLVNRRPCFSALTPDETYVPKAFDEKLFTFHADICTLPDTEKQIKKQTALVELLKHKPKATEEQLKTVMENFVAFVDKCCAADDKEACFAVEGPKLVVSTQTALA

Another experiment relates to Streptococcus. Put plainly: GAS UMAA2166 growth inhibition – luminescence, BacTiterGlo, counter-screen for streptokinase expression inhibitor project, dose response (AID 1915).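 Also: potency for reduction of bacterial viability or growth.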 It counts as functional, organism-based.
The next experiment concerns H9c2. Put plainly: cells. The conditions noted are these: Rattus norvegicus, H9c2, Myocardium. It is filed as functional, cell-based.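 Also: confirmatory concentration-response retest of ultra-high-throughput screening hits for modulation of myocardial damage; cell death induced by hydrogen peroxide oxidative stress; compound pretreatment for 60 min then peroxide exposure for 2 h; potency is for protecting the cells against peroxide damage rather than for killing them.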
The target of the next experiment is T3, Streptokinase A (Streptococcus pyogenes serotype M1, UniProt P10520).
T3 sequence (P10520 whole entry): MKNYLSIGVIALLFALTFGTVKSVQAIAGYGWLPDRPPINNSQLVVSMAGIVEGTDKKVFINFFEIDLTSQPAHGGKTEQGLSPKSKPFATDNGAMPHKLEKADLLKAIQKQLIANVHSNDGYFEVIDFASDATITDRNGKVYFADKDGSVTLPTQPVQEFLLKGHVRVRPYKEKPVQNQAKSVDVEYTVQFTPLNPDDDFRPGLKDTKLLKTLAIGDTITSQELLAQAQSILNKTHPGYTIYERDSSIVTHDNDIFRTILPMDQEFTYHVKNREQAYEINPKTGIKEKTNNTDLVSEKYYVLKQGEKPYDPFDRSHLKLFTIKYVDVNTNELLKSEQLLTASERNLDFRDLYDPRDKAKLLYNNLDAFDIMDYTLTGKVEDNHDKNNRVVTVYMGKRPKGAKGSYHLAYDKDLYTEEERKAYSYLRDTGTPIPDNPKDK
Description: viability-normalized secreted streptokinase activity reduction – plasminogen activation absorbance, OD405, dose response (AID 1914).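 Also: secreted streptokinase activity via plasminogen activation per viability signal from cell pellet.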 It is filed as functional, Streptococcus pyogenes M1 GAS.

Experiment [6] relates to Streptococcus sp. 'group A'. Put plainly: Streptococcus pyogenes SK(-)GAS viability under kanamycin – luminescence, BacTiterGlo, confirmation, counter-screen for streptokinase expression inhibitor project, dose response (AID 1900). It is filed as functional, organism-based.
The target in experiment [7] is Potassium channel subfamily K member 9 (Homo sapiens, UniProt Q9NPC2). Description: KCNK9 flux blockade, concentration-response – cell-based, FluxOR thallium flux, selectivity assay for TASK1 inhibitor project, SAR follow-up (AID 652211).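 Also: potency is for inhibitors of the channel.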 It is filed as functional.
Potassium channel subfamily K member 9, sequence (Q9NPC2 whole entry): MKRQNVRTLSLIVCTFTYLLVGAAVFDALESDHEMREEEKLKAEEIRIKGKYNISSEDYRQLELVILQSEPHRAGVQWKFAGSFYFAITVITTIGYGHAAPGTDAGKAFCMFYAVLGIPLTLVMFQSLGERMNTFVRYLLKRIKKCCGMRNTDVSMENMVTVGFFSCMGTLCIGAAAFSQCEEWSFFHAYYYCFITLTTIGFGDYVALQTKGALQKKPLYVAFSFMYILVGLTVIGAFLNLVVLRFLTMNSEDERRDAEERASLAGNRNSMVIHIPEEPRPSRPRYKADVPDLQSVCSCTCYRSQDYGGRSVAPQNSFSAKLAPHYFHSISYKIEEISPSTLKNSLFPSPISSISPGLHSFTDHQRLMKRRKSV
Experiment [8] concerns the target T4, Mannose-6-phosphate isomerase (Homo sapiens, UniProt P34949).
T4 sequence (P34949 whole entry): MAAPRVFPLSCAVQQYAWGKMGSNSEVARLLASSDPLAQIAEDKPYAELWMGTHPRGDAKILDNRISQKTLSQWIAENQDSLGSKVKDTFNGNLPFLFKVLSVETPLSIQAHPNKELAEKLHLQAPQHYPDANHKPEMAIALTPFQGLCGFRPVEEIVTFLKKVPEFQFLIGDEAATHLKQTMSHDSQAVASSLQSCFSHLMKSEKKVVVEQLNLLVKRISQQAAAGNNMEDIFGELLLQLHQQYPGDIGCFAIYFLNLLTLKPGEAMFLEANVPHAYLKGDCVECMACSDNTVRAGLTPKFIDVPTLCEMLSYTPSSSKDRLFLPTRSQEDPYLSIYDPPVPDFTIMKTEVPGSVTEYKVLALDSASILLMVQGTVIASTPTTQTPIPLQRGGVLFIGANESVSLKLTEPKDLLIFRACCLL
Put plainly: MPI enzyme activity inhibition – biochemical, fluorescence intensity, coupled assay, primary screen (AID 1209).

Experiment [9] in a line: viability inhibitors of stage V gametocytes – luminescence, dose response (AID 1117278).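 Also: gametocytes exposed to compound for 24 hours.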 It counts as functional, cell-based.
Experiment [10] is described as follows: viability loss in human Jurkat cells – cell-based, luminescence, cytotoxicity control for P. falciparum gametocyte viability project, dose response (AID 1117277).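 Also: potency reflects loss of cellular ATP meaning fewer viable cells.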 It is filed as functional.
The next experiment deals with T5, fMet-Leu-Phe receptor (Homo sapiens, UniProt P21462).
T5 sequence (P21462 whole entry): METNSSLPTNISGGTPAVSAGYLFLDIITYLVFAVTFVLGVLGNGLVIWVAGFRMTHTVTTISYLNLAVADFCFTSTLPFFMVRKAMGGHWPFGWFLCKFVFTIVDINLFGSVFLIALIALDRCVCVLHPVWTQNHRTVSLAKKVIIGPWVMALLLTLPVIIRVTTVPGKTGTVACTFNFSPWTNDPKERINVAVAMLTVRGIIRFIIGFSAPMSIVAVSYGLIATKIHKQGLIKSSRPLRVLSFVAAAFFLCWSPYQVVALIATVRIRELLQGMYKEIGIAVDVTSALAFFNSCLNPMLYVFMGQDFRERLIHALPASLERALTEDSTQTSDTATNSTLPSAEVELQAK
Put plainly: formyl peptide receptor binders – dose response (AID 519). It is filed as functional.

Experiment [11] is described as follows: viability of PTEN-deleted HCT116 cells – cell-based, HCT116 PTEN knockout, dose response (AID 1047).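 Also: HCT116 colon tumor cells with PTEN knocked out; cells exposed to compound for 60 hours before readout; potency for loss of cell viability measured by luminescence.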 It counts as functional.
Experiment [12] is described as follows: viability of HCT116 lacking mutant beta-catenin – cell-based, human colon tumor, dose response (AID 1045).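 Also: HCT116 colon tumor cells with beta catenin knocked out; cells exposed to compound for 60 hours.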 It is filed as functional.
The next experiment concerns the target Cytochrome P450 2C9 (Homo sapiens, UniProt P11712).

Active and inactive are the calls of the source.

Cytochrome P450 2C9, sequence (P11712 whole entry): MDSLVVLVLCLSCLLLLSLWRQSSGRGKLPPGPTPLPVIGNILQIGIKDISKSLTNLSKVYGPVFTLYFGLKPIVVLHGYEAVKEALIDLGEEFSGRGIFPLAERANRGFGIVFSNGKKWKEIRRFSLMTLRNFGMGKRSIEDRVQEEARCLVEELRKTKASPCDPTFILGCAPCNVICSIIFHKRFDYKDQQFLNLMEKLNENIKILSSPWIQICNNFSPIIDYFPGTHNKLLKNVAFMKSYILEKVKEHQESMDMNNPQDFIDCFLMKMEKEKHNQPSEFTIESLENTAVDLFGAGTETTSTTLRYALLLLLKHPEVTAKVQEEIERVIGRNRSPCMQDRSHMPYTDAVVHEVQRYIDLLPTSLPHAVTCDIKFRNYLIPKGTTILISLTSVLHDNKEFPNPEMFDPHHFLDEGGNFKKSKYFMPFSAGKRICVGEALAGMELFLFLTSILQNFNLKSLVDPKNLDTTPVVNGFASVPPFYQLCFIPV

For `Cc1ccccc1S(=O)(=O)N1CC(=O)N2[C@H](CO)[C@H](c3ccc(C#CCC4CCCC4)cc3)[C@H]2C1`, the AC50 in [1] was 1.9 µM (active); in experiment [2], 411 nM (active); in experiment [3], 1.2 µM (active); in experiment [4], 26.5 µM (active); in experiment [5] it was 1.42 µM (active).
Regarding `COc1ccc(-c2nc3oc4cc(OC)ccc4c(=O)c3c(=O)n2Cc2ccco2)cc1`, the IC50 at Protein Tat is > 100 µM (active).
`Cc1nn(Cc2ccccc2)c(C)c1NC(=O)CSc1nnc(-c2cc(Cl)ccc2O)n1C`: the IC50 against Estrogen receptor is > 50 µM (not active).
As for `CC(C)CC#Cc1ccc([C@H]2[C@@H](CO)N3C(=O)CN(C(=O)Cc4ccccc4)C[C@H]23)cc1`, the AC50 in experiment [1] was 0.424 µM (active); in experiment [2], 836 nM (active); in [3] it was 2.02 µM (active); in experiment [4], 26.3 µM (active); in experiment [5], 1.09 µM (active).
On to `Cc1cc(C)c(C)c(S(=O)(=O)N2CCC(C(=O)NNC(=O)c3ccccc3O)CC2)c1C`, for which the results for the IC50 on Albumin and with H9c2 were > 94.1 µM (inactive) and 31.7 µM (inactive), respectively. The figures for the EC50 (in the experiment with Streptococcus; at Streptokinase A; in [6]) were > 150 µM (not active), > 150 µM (not active) and 17 µM (active), respectively.
Turning to `COc1ccccc1C(=O)Nc1cccc(NC(=O)c2ccccc2C(C)C)c1`, the IC50 in experiment [7] was 740 nM (active).
Regarding `N#C/C(=C\c1cccnc1)C(=O)Nc1ccccc1`, the IC50 in experiment [8] is recorded as > 50 µM (not active).
Consider `O=C1NC(=S)NC1=Cc1ccco1`, for which, at Albumin, the IC50 is > 94.1 µM (inactive).
For the compound `CC(C)Oc1ccccc1C(=O)Nc1cccc(NC(=O)c2ccccc2OC(F)(F)F)c1`, the IC50 in [7] was 70 nM (active).
As to `CCc1ccc(CC)c(S(=O)(=O)Nc2ccc(C(=O)O)c(O)c2)c1`, at Protein Tat, the IC50 is > 100 µM (active).
On to `O=S1(=O)OCCC(c2ccccc2)N1Cc1ccccc1` (centres undefined), for which the IC50 is > 109 µM (inactive) in experiment [9] and > 83.3 µM (inactive) in experiment [10].
The corresponding values for `C=CCCC(=O)Nc1ccc(Br)cn1` are > 109 µM (inactive) and > 83.3 µM (inactive).
The like results for `O=C(CSc1nnc(-c2ccc(F)cc2)o1)NC1CCCCC1` were, in that order, > 109 µM (inactive) and > 83.3 µM (inactive).
Consider `O=C(NCCCN1CCN(c2ccc(F)cc2)CC1)c1cccc(N2CCCC2=O)c1`, for which, at fMet-Leu-Phe receptor, the Ki was > 66.7 µM (inactive).
As for `CCc1ccc(N2C(=O)CC(Cn3nc(C)cc3C)C2=O)cc1` (centres undefined), the IC50 is > 109 µM (inactive) in experiment [9] and > 83.3 µM (inactive) in experiment [10].
Turning to `Cc1ccc(/C=N/n2c(S)nnc2-c2ccncc2)cc1`, the 50% inhibitory concentration (IC50) in experiment [8] is 18.3 µM (active).
As for `Cc1cccc(N2CCN(c3nc4ccccc4n4cnnc34)CC2)c1C`, the EC50 in experiment [11] was 23.4 µM (active); in experiment [12], 25.4 µM (active). Moreover, the IC50 on Estrogen receptor is given as 38.8 µM (not active).
With `CC1(C)CC(=O)C(/C=N/c2ccc3[nH]ncc3c2)=C(O)C1`, in [8], the IC50 is reported as > 50 µM (not active).
Take `CO[C@@H]1CN(C)C(=O)c2cc(NC(=O)c3ccccc3F)ccc2OC[C@H](C)N(C(=O)c2ccccc2F)C[C@@H]1C`: the concentration at half-maximal activity (AC50) in experiment [1] is 2.47 µM (active); in [2], 1100 nM (active); in experiment [3], 2.87 µM (active); in [4], > 100 µM (inactive); in experiment [5], 1.64 µM (active).
The like results for `O=S(=O)(c1ccccc1)N1C[C@@H]2N[C@H](C1)[C@H]2c1ccc(-c2ccc(F)cc2)cc1` were, in that order, 1.54 µM (active), 1470 nM (active), 1.27 µM (active), 14.3 µM (active) and 1.85 µM (active).
On to `CCC(CC)C(=O)/N=c1\c2cnn(-c3ccccc3)c2[nH]c(=O)n1-c1ccccc1`, for which, on Cytochrome P450 2C9, the AC50 was 28.2 µM (inconclusive). For the same compound, at fMet-Leu-Phe receptor, the Ki was 49.8 µM (inactive).
For `Cc1ccc(S(=O)(=O)N2CCC(C(=O)NNC(=O)c3ccccc3O)CC2)cc1`, at Albumin, the IC50 is > 94.1 µM (inactive).

The record behind these values is ChEMBL document CHEMBL1201862, “PubChem BioAssay data set” (2004).
